Measured values published in patent US20080027139A1, “Use of Alpha-Ketoglutarate and Related Compounds” (priority 2004, published 2008).
Read-outs that look alike come from different tables or passages of the source.

Legend:
[1] = test system: sham-operated (SHO) and ovariectomized (OVX) Wistar female rats
Experimental: A study was conducted on Wistar female rats kept in standard weather conditions. […] Afterwards the female rates were randomly divided into 2 groups: ovariectomy were performed in all animals in group one (OVX) and placebo operation were done in the second group (SHO). Surgical procedures were performed under general anesthesia (rometare, ketamine and atropine in doses 2, 10 and 0.05 mg/kg of bodily weight respectively.
Studies were conducted on the animals from the two groups: females received experimental solutions from the seventh day following the operation (simulation of the first period of the lack of activity of the ovarian hormones) (Experiment I 1), females aged 7 months with a 5 month period in which there was no activity of hormonal ovaries (simulation of the period with a prolonged absence of the activity of ovarian hormones) (Experiment I 2) (Tab. 2).
In each of Experiments I1 and I2 40 animals was used for each experimental doses making a total of 240 animals.
Blood samples were collected immediately after slaughter, and the plasma removed by centrifugation was stored in a safe place for further biochemical analyses.
The entire cholesterol concentration was determined by means of commonly available analytical equipment using the spectrophotometric method.

[2] = test system: Wistar rats with diet-induced hypercholesterolaemia; settings: day 120; AKG doses 0.1 and 1 from day 61 for 60 days; p<0.05
Text: Afterwards all animals received fodder enriched with 1% cholesterol (Sigma-Aldrich, Germany) and 10% lard in order to obtain hypercholesterolaemia. • 12 rats (6 females and 6 males) were killed on day 0 as an introduction control. • 12 rats (6 females and 6 males) were killed at day 30. • 12 rats (6 females and 6 males) were killed at day 60.
Remaining 48 rats were divided into 3 groups and the experiment continued for another 60 days on cholesteremic diet: • 1. Placebo group—24 rats (12 females and 12 males) • 2. 1 g AKG group—12 rats (6 females and 6 males) • 3. 0.1 g AKG group—12 rats (6 females and 6 males)
During the first 60 days of using cholesterol and lard enriched diet, the lipid profile was checked three times to determine the concentration of the entire cholesterol, the fraction of LDL and HDL and triglycerides. Measuring tests were performed a day before the said diet was commenced (day 0) and subsequently after 30 and 60 days of the application of the said diet. On the sixty first day of the experiment animals were divided into two groups: one receiving the placebo solution and the other receiving AKG solution (AKG in doses 0.1 and 1 (Table 9). All the time animals continued to receive experimental fodder. During the period when placebo and AKG solutions were administered, the lipid profile was checked on the 120th day of the experiment. […]

[3] = test system: volunteers with a relatively high level of cholesterol
Text: The experiment lasted for the total of 42 days. […] During the experiment no quantitative or qualitative restrictions regarding the diet were introduced. In the period from day 1 to day 28 the patients' lipid profile was checked every seven days in order to determine the concentration of cholesterol, fractions of LDL and HDL and triglycerides. […] Subsequent measurements of the lipid profile were taken on 42nd day of the experiment.

[4] = Volunteer 1, 1st week, chewable tablets of 1.28 g calcium alpha-ketoglutarate (1 g AKG), two tablets three times a day, day 1-28
[5] = Volunteer 1, 2nd week, calcium alpha-ketoglutarate tablets (1 g AKG), two tablets three times a day
[6] = Volunteer 1, 3rd week, calcium alpha-ketoglutarate tablets (1 g AKG), two tablets three times a day
[7] = Volunteer 1, 4th week, calcium alpha-ketoglutarate tablets (1 g AKG), two tablets three times a day
[8] = Volunteer 1, 6th week, after 2 weeks without AKG
[9] = Volunteer 2, 1st week, chewable tablets of 1.28 g calcium alpha-ketoglutarate (1 g AKG), two tablets three times a day, day 1-28
[10] = Volunteer 2, 2nd week, calcium alpha-ketoglutarate tablets (1 g AKG), two tablets three times a day
[11] = Volunteer 2, 3rd week, calcium alpha-ketoglutarate tablets (1 g AKG), two tablets three times a day
[12] = Volunteer 2, 4th week, calcium alpha-ketoglutarate tablets (1 g AKG), two tablets three times a day
[13] = Volunteer 2, 6th week, after 2 weeks without AKG
[14] = two volunteers, after a 14 day break in administering the preparation

## O=C(O)CCC(=O)C(=O)O [AKG, alpha-ketoglutaric acid]
[1]; OVX females, AKG dose 0.01 during 60 days, Experiment I-1, p=0.04, reaching the level of the control group
  effect on concentration of the entire cholesterol (in words): statically significant decrease
[1]; both doses 0.01 and 0.1, OVX and SHO groups, Experiment I-2 (prolonged lack of ovarian hormones)
  effect on concentration of the entire cholesterol (in words): statistically significant decrease
[1]; dose 1, females after ovariectomy relative to the control group, long-term absence of ovarian hormones (Experiment I-2)
  effect on concentration of the entire cholesterol (in words): decreased
[1]; dose 1, females after ovariectomy relative to the control group, short-term absence of ovarian hormones (Experiment I-1)
  effect on concentration of the entire cholesterol (in words): decreased
[2]
  effect on concentration of HDL (in words): increase
[3]; [4]
  HDL level: 45 mg/dL
  Total cholesterol level: 194 mg/dL
  Triglycerides level: 197 mg/dL
[3]; [5]
  HDL level: 41 mg/dL
  Total cholesterol level: 196 mg/dL
  Triglycerides level: 304 mg/dL
[3]; [6]
  HDL level: 42 mg/dL
  Total cholesterol level: 171 mg/dL
  Triglycerides level: 269 mg/dL
[3]; [7]
  HDL level: 48 mg/dL
  Total cholesterol level: 157 mg/dL
  Triglycerides level: 259 mg/dL
[3]; [8]
  HDL level: 33 mg/dL
  Total cholesterol level: 197 mg/dL
  Triglycerides level: 375 mg/dL
[3]; [9]
  HDL level: 35 mg/dL
  Total cholesterol level: 190 mg/dL
  Triglycerides level: 122 mg/dL
[3]; [10]
  HDL level: 44 mg/dL
  Total cholesterol level: 213 mg/dL
  Triglycerides level: 101 mg/dL
[3]; [11]
  HDL level: 40 mg/dL
  Total cholesterol level: 199 mg/dL
  Triglycerides level: 199 mg/dL
[3]; [12]
  HDL level: 42 mg/dL
  Total cholesterol level: 189 mg/dL
  Triglycerides level: 187 mg/dL
[3]; [13]
  HDL level: 40 mg/dL
  Total cholesterol level: 215 mg/dL
  Triglycerides level: 220 mg/dL
[3]; two volunteers, 28 days of tablets containing 1 g of AKG, 2 tablets 3 times a day
  effect on concentration of HDL (in words): No significant effect
[3]; two volunteers, after 28 days of tablets containing 1 g of AKG, 2 tablets 3 times a day
  effect on concentration of the entire cholesterol (in words): decrease
[3]; [14]
  change of concentration of HDL fraction after stopping (in words): statistically significant decrease
  change of concentration of the entire cholesterol after stopping (in words): increased
  change of concentration of triglycerides after stopping (in words): significant increase
[3]; two volunteers, from day 1 to day 28 of AKG tablets
  effect on concentration of triglycerides (in words): increase
